Measurements published in patent publication US20230279025A1, “KRAS G12D INHIBITORS” (Mirati Therapeutics, Inc., priority 2020, published 2023).

Molecular target: KRas G12D (Homo sapiens (Human), UniProt P01116, G12D)
Assay: KRas G12D Binding Assay (TR-FRET displacement of Cy5 labelled tracer)
Settings: GDP-loaded KRAS G12D (amino acids 1:169), 60 minute incubation at 22° C.
Protocol: After a 60 minute incubation at 22° C., the reaction was measured using a PerkinElmer EnVision multimode plate reader via TR-FRET dual wavelength detection, and the percent of control (POC) calculated using a ratiometric emission factor. […] The POC values were fit to a 4-parameter logistic curve and the IC50 value was determined as the concentration where the curve crosses 50 POC.
ND stands for “not determined.”

Chain of KRas G12D (P01116 other isoform, or with tags, fused parts or gaps G12D): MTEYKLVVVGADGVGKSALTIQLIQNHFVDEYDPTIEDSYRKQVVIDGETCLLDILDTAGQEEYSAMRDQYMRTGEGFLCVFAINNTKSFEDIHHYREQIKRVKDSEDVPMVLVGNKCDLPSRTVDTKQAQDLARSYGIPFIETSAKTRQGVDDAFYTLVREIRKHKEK

## O=C(OC[C@H]1CC[C@@]2(COc3nc(N4CC5CCC(C4)N5)c4cnc(-c5cccc6cccc(Cl)c56)c(F)c4n3)CCCN12)N1CCCCC1 [Example 444, ((3R,7aR)-7a-(((4-(3,8-diazabicyclo[3.2.1]octan-3-yl)-7-(8-chloronaphthalen-1-yl)-8-fluoropyrido[4,3-d]pyrimidin-2-yl)oxy)methyl)hexahydro-1H-pyrrolizin-3-yl)methyl piperidine-1-carboxylate]
  IC50: 5.5 nM

## O=C(OC[C@H]1CC[C@@]2(COc3nc(N4CC5CCC(C4)N5)c4cnc(-c5cccc6cccc(Cl)c56)c(F)c4n3)CCCN12)N1CCOCC1 [Example 445, ((3R,7aR)-7a-(((4-(3,8-diazabicyclo[3.2.1]octan-3-yl)-7-(8-chloronaphthalen-1-yl)-8-fluoropyrido[4,3-d]pyrimidin-2-yl)oxy)methyl)hexahydro-1H-pyrrolizin-3-yl)methyl morpholine-4-carboxylate]
  IC50: 2.7 nM

## Cn1ccc2cccc(-c3ncc4c(N5C[C@H]6CC[C@@H](C5)N6)nc(OCC56CCCN5CCC6)nc4c3F)c21 [Example 446, 4-((1R,5S)-3,8-diazabicyclo[3.2.1]octan-3-yl)-8-fluoro-7-(1-methyl-1H-indol-7-yl)-2-((tetrahydro-1H-pyrrolizin-7a(5H)-yl)methoxy)pyrido[4,3-d]pyrimidine]
  IC50: 357 nM

## CCCc1ccccc1-c1ncc2c(N3C[C@H]4CC[C@@H](C3)N4)nc(OCC34CCCN3CCC4)nc2c1F [Example 447, 4-((1R,5S)-3,8-diazabicyclo[3.2.1]octan-3-yl)-8-fluoro-7-(2-propylphenyl)-2-((tetrahydro-1H-pyrrolizin-7a-(5H)-yl)methoxy)pyrido[4,3-d]pyrimidine]
  IC50: 297 nM

## Fc1c(-c2ccccc2C2CC2)ncc2c(N3C[C@H]4CC[C@@H](C3)N4)nc(OC[C@@]34CCCN3C[C@H](F)C4)nc12 [Example 448, 4-((1R,5S)-3,8-diazabicyclo[3.2.1]octan-3-yl)-7-(2-cyclopropylphenyl)-8-fluoro-2-(((2R,7aS)-2-fluorohexahydro-1H-pyrrolizin-7a-yl)methoxy)pyrido[4,3-d]pyrimidine]
  IC50: 130 nM

## CCc1cccc2cc(O)cc(-c3ncc4c(N5C[C@H]6CC[C@@H](C5)N6)ncnc4c3F)c12 [Example 449, 4-(4-((1R,5S)-3,8-diazabicyclo[3.2.1]octan-3-yl)-8-fluoropyrido[4,3-d]pyrimidin-7-yl)-5-ethylnaphthalen-2-ol]
  IC50: 71 nM

## CC(Oc1nc(N2C[C@H]3CC[C@@H](C2)N3)c2cnc(-c3cccc4cccc(F)c34)c(F)c2n1)C12CCCN1CCC2 (stereo partly drawn) [Example 450, 4-((1R,5S)-3,8-diazabicyclo[3.2.1]octan-3-yl)-8-fluoro-7-(8-fluoronaphthalen-1-yl)-2-(1-(hexahydro-1H-pyrrolizin-7a-yl)ethoxy)pyrido[4,3-d]pyrimidine]
  IC50: 37 nM

## Nc1nc2c(-c3ncc4c(N5C[C@H]6CC[C@@H](C5)N6)nc(OCC56CCCN5CCC6)nc4c3F)cccc2s1 [Example 453, 4-(4-((1R,5S)-3,8-diazabicyclo[3.2.1]octan-3-yl)-8-fluoro-2-((hexahydro-1H-pyrrolizin-7a-yl)methoxy)pyrido[4,3-d]pyrimidin-7-yl)benzo[d]thiazol-2-amine]
  IC50: 27 nM

## Fc1c(-c2cccc3scnc23)ncc2c(N3C[C@H]4CC[C@@H](C3)N4)nc(OCC34CCCN3CCC4)nc12 [Example 454, 4-(4-((1R,5S)-3,8-diazabicyclo[3.2.1]octan-3-yl)-8-fluoro-2-((hexahydro-1H-pyrrolizin-7a-yl)methoxy)pyrido[4,3-d]pyrimidin-7-yl)benzo[d]thiazole]
  IC50: 295 nM

## Nc1nc2c(-c3ncc4c(N5C[C@H]6CC[C@@H](C5)N6)nc(OCC56CCCN5CCC6)nc4c3F)ccc(F)c2s1 [Example 455, 4-(4-((1R,5S)-3,8-diazabicyclo[3.2.1]octan-3-yl)-8-fluoro-2-((hexahydro-1H-pyrrolizin-7a-yl)methoxy)pyrido[4,3-d]pyrimidin-7-yl)-7-fluorobenzo[d]thiazol-2-amine]
  IC50: 17 nM

## Cc1cc2sc(N)nc2c(-c2ncc3c(N4C[C@H]5CC[C@@H](C4)N5)nc(OCC45CCCN4CCC5)nc3c2F)c1C [Example 456, 4-(4-((1R,5S)-3,8-diazabicyclo[3.2.1]octan-3-yl)-8-fluoro-2-((hexahydro-1H-pyrrolizin-7a-yl)methoxy)pyrido[4,3-d]pyrimidin-7-yl)-5,6-dimethylbenzo[d]thiazol-2-amine]
  IC50: 966 nM

## Cc1cc2sc(N)nc2c(-c2ncc3c(N4C[C@H]5CC[C@@H](C4)N5)nc(OC[C@@]45CCCN4C[C@H](F)C5)nc3c2F)c1C [Example 457, 4-(4-((1R,5S)-3,8-diazabicyclo[3.2.1]octan-3-yl)-8-fluoro-2-(((2R,7aS)-2-fluorohexahydro-1H-pyrrolizin-7a-yl)methoxy)pyrido[4,3-d]pyrimidin-7-yl)-5,6-dimethylbenzo[d]thiazol-2-amine]
  IC50: 475 nM

## Cc1ccc2sc(N)nc2c1-c1ncc2c(N3C[C@H]4CC[C@@H](C3)N4)nc(OCC34CCCN3CCC4)nc2c1F [Example 458, 4-(4-((1R,5S)-3,8-diazabicyclo[3.2.1]octan-3-yl)-8-fluoro-2-((hexahydro-1H-pyrrolizin-7a-yl)methoxy)pyrido[4,3-d]pyrimidin-7-yl)-5-methylbenzo[d]thiazol-2-amine]
  IC50: 143 nM

## Fc1ccc2cccc(-c3ncc4c(N5C[C@H]6CC[C@@H](C5)N6)nc(OCC56CCCN5CCC6)nc4c3F)c2c1 [Example 460, 4-((1R,5S)-3,8-diazabicyclo[3.2.1]octan-3-yl)-8-fluoro-7-(7-fluoronaphthalen-1-yl)-2-((hexahydro-1H-pyrrolizin-7a-yl)methoxy)pyrido[4,3-d]pyrimidine]
  IC50: 0.027 nM

## Oc1cc(-c2ncc3c(N4CC5CCC(C4)N5)nc(OCCN4C[C@@H]5C[C@H]4CO5)nc3c2F)c2ccccc2c1 [Example 461, 4-(2-(2-((1S,4S)-2-oxa-5-azabicyclo[2.2.1]heptan-5-yl)ethoxy)-4-((1R,5S)-3,8-diazabicyclo[3.2.1]octan-3-yl)-8-fluoropyrido[4,3-d]pyrimidin-7-yl)naphthalen-2-ol]
  IC50: 0.062 nM

## O=C1CCC2(COc3nc(N4CC5CCC(C4)N5)c4cnc(-c5cc(O)cc6ccccc56)c(F)c4n3)CCCN12 (stereo not drawn) [Example 462, 7a-(((4-(3,8-diazabicyclo[3.2.1]octan-3-yl)-8-fluoro-7-(3-hydroxynaphthalen-1-yl)pyrido[4,3-d]pyrimidin-2-yl)oxy)methyl)tetrahydro-1H-pyrrolizin-3(2H)-one]
  IC50: 0.751 nM

## Oc1cc(-c2ncc3c(N4CC5CCC(C4)N5)nc(OCC45CCCCN4CCC5)nc3c2F)c2ccccc2c1 (stereo not drawn) [Example 463, 4-(4-(3,8-diazabicyclo[3.2.1]octan-3-yl)-8-fluoro-2-((octahydroindolizin-8a-yl)methoxy)pyrido[4,3-d]pyrimidin-7-yl)naphthalen-2-ol]
  IC50: 0.012 nM

## Fc1ccc2cccc(-c3ncc4c(N5C[C@H]6CC[C@@H](C5)N6)nc(OCC56CCCN5CCC6)nc4c3F)c2c1F [Example 464, 4-((1R,5S)-3,8-diazabicyclo[3.2.1]octan-3-yl)-7-(7,8-difluoronaphthalen-1-yl)-8-fluoro-2-((hexahydro-1H-pyrrolizin-7a-yl)methoxy)pyrido[4,3-d]pyrimidine]
  IC50: 0.007 nM

## CCc1cccc2cccc(-c3ncc4c(N5C[C@H]6CC[C@@H](C5)N6)nc(OC[C@@]56CCCN5C[C@H](F)C6)nc4c3F)c12 [Example 465, 4-((1R,5S)-3,8-diazabicyclo[3.2.1]octan-3-yl)-7-(8-ethylnaphthalen-1-yl)-8-fluoro-2-(((2R,7aS)-2-fluorohexahydro-1H-pyrrolizin-7a-yl)methoxy)pyrido[4,3-d]pyrimidine]
  IC50: 0.001 nM

## CCc1cccc2cccc(-c3ncc4c(N5CC6CCC(C5)N6)nc(OC[C@@]56C[C@H](O)CN5C[C@H](O)C6)nc4c3F)c12 [Example 466, (2R,6S,7as)-7a-(((4-((1R,5S)-3,8-diazabicyclo[3.2.1]octan-3-yl)-7-(8-ethylnaphthalen-1-yl)-8-fluoropyrido[4,3-d]pyrimidin-2-yl)oxy)methyl)hexahydro-1H-pyrrolizine-2,6-diol]
  IC50: 0.006 nM

## [2H]C1([2H])CC[C@@]2(C([2H])([2H])Oc3nc(N4C[C@H]5CC[C@@H](C4)N5)c4cnc(-c5cc(O)cc6cccc(CC)c56)c(F)c4n3)C[C@@H](F)CN12 [Example 480, 4-(4-((1R,5S)-3,8-diazabicyclo[3.2.1]octan-3-yl)-8-fluoro-2-(((2R,7aS)-2-fluorotetrahydro-1H-pyrrolizin-7a(5H)-yl-5,5-d2)methoxy-d2)pyrido[4,3-d]pyrimidin-7-yl)-5-ethylnaphthalen-2-ol]
  IC50: < 0.002 nM
